According to patent publication US20230055705A1, “SUBSTITUTED THIOPHENE CARBOXAMIDES AND DERIVATIVES THEREOF” (Bayer Aktiengesellschaft, priority 2019, published 2023):

Assays:
[1] = system: salicylate responsive promoter sequence of the PR1 (pathogenesis-related protein I) gene (AT2G14610); test: Induction of defense gene expression in Arabidopsis thaliana (PR1 promoter-GFP reporter plants); assay type: in vivo; settings: Arabidopsis thaliana, 72 h, 3rd day after spraying, mock treated leaves set as 1.00, read-out: relative fluorescence value; for fold induction at 75 ppm: 75 ppm of compound
Protocol: Arabidopsis thaliana reporter plants containing the coding sequence of a green fluorescent protein (GFP) linked to the salicylate responsive promoter sequence of the PR1 (pathogenesis-related protein I) gene (AT2G14610) were grown for five days and then sprayed with compounds. On the 3rd day after spraying, plant fluorescence was assessed with a MacroFluo instrument from Leica Microsystems (Wetzlar, Germany). Fluorescences were quantified with the Meta-Morph Microscopy Automation & Image Analysis Software (Molecular Devices, Sunnyvale, Calif., United States). Background fluorescence in mock treated leaves was set as 1.00.

Alternaria alternata = Alternaria alternata in vitro cell test; assay type: cell-based; settings: 120 h, 20 ppm of active ingredient, 5 days incubation, read-out: efficacy (inhibition of fungal growth)
Protocol: (§1) • Solvent: DMSO • Culture medium: 14.6 g anhydrous D-glucose (VWR), 7.1 g Mycological Peptone (Oxoid), 1.4 g granulated Yeast Extract (Merck), QSP 1 liter • Inoculum: spores suspension
(§2) Fungicides were solubilized in DMSO and the solution used to prepare the required range of concentrations. The final concentration of DMSO used in the assay was ≤[…]1%.
A spore suspension of A. alternata was prepared and diluted to the desired spore density.
(§3) Fungicides were evaluated for their ability to inhibit spore germination and mycelium growth in liquid culture assay. The compounds were added in the desired concentration to the culture medium with spores. After 5 days incubation, fungi-toxicity of compounds was determined by spectrometric measurement of mycelium growth. Inhibition of fungal growth was determined by comparing the absorbance values in wells containing the fungicides with the absorbance in control wells without fungicides.

[2] = system: Xanthomonas campestris pv. campestris; test: Xanthomonas campestris pv. campestris in vitro cell test; assay type: cell-based; settings: 20 ppm of active ingredient, 24 h incubation, read-out: efficacy (inhibition of bacteria growth)
Protocol: • Solvent: DMSO • Culture medium: LB broth medium (Luria Broth Miller) Sigma • Inoculum: bacteria suspension
Compounds were solubilized in DMSO and the solution used to prepare the required range of concentrations. The final concentration of DMSO used in the assay was ≤1%.
(§4) Inoculum was prepared from a pre-culture of bacteria grown in liquid medium and diluted to the desired optical density (OD).
(§5) Compounds were evaluated for their ability to inhibit bacteria growth in liquid culture assay. The compounds were added in the desired concentrations to culture medium containing the bacteria suspension. After 24 h of incubation, the efficacy of compounds was determined by spectrometric measurement of bacteria growth. Inhibition was determined by comparing the absorbance values in wells containing the compounds with the absorbance in control wells without active ingredients.

[3] = system: Pseudomonas syringae pv. tomato; test: Pseudomonas syringae pv. tomato in vitro cell test; assay type: cell-based; settings: 20 ppm of active ingredient, 24 h incubation, read-out: efficacy (inhibition of bacteria growth)
Protocol: Culture medium: LB broth medium (Luria Broth Miller) Sigma
Inoculum: bacteria suspension
Compounds were solubilized in DMSO and the solution used to prepare the required range of concentrations. The final concentration of DMSO used in the assay was 1%.
as §4, §5

[4] = system: Colletotrichum lindemuthianum; test: In vivo preventive test on Colletotrichum lindemuthianum (Antrachnose on bean); settings: 144 h, 500 ppm of active ingredient, inoculation 72 h after spraying, evaluated 6 days after inoculation, read-out: efficacy
Protocol: (§6) The tested active ingredients were prepared by homogenization in a mixture of acetone/Dimethyl sulfoxide/Tween®, and then diluted with water to obtain the desired active material concentration. The young plants of bean were treated by spraying the active ingredient prepared as described above. Control plants were treated only with an aqueous solution of acetone/Dimethyl sulfoxide/Tween®.
(§7) After 72 hours, the plants were contaminated by spraying the leaves with an aqueous suspension of Colletotrichum lindemuthianum spores. The contaminated bean plants were incubated for 24 hours at 20° C. and at 100% relative humidity and then for 5 days at 20° C. and at 90% relative humidity. The test was evaluated 6 days after the inoculation. 0% means an efficacy which corresponds to that of the control plants while an efficacy of 100% means that no disease was observed.
Compound CMP1 was tested in an in vivo preventive test on Colletotrichum lindemuthianum (Antrachnose on bean) in the same conditions as described in Example F.

Peronospora parasitica = test: In vivo preventive test on Peronospora parasitica (Crucifer downy mildew); settings: Hyaloperonospora parasitica, in Brassica oleracea, 120 h, cabbage, evaluated 5 days after inoculation, read-out: efficacy; for pest or weed control at 31 ppm: 31 ppm of active ingredient; for pest or weed control at 125 ppm: 125 ppm of active ingredient; for pest or weed control at 500 ppm: 500 ppm of active ingredient
Protocol: as §6, with “cabbage” for “bean”
After 72 hours, the plants were contaminated by spraying the leaves with an aqueous suspension of Peronospora parasitica spores. The contaminated cabbage plants were incubated for 5 days at 20° C. and at 100% relative humidity.
The test was evaluated 5 days after the inoculation. 0% means an efficacy which corresponds to that of the control plants while an efficacy of 100% means that no disease was observed.
Compounds CMP2 and CMP3 were tested in an in vivo preventive test on Peronospora parasitica (Crucifer downy mildew) in the same conditions as described in Example G.

Uromyces appendiculatus = test: In vivo preventive test on Uromyces appendiculatus (bean rust); settings: 240 h, evaluated 10 days after inoculation, read-out: efficacy; for pest or weed control at 500 ppm: 500 ppm of active ingredient
Protocol: as §6
as §7, with “Uromyces appendiculatus” for “Colletotrichum lindemuthianum”, “9” for “5”, “70-80%” for “90%”, “10” for “6”
Compounds CMP5 and CMP6 were tested in an in vivo preventive test on Uromyces appendiculatus (bean rust) in the same conditions as described in Example I.

[5] = LogP by HPLC on reversed phase columns (EEC directive 79/831 Annex V.A8); assay type: physicochemical; settings: reversed phase HPLC columns, method [a]: LC-UV
Procedure, shortened: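 Reversed-phase HPLC per EEC directive 79/831 Annex V.A8. Calibrated with straight-chain alkan-2-ones (C3–C16) of known LogP, LogP from retention times by linear interpolation between successive alkanones. Lambda-max taken from UV spectra (200–400 nm) at chromatographic peak maxima.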

[6] = system: Xanthomonas campestris pv. campestris; test: In vivo preventive test on Xanthomonas campestris pv. campestris (black rot on cabbage); settings: evaluated 8 or 10 days after inoculation, read-out: efficacy; for pest or weed control at 125 ppm: 125 ppm of active ingredient
Protocol: The tested active ingredients were prepared by homogenization in a mixture of acetone/Dimethyl sulfoxide/Tween®, and then diluted with water to obtain the desired active material concentration.
The young plants of cabbage were treated by spraying the active ingredient prepared as described above. Control plants were treated only with an aqueous solution of acetone/Dimethyl sulfoxide/Tween®.
After 72 hours, the plants were contaminated by spraying the leaves with an aqueous bacteria suspension of Xanthomonas campestris pv. campestris. The contaminated cabbage plants were incubated for 8 or 10 days at 27° C. at 95% relative humidity.
The test was evaluated 8 or 10 days after the inoculation. 0% means an efficacy which corresponds to that of the control plants while an efficacy of 100% means that no disease was observed. […]
Compounds CMP1, CMP2, CMP3 and CMP4 were tested in an in vivo preventive test on Xanthomonas campestris pv. campestris (black rot on cabbage) in the same conditions as described in Example H.

[7] = system: Colletotrichum lindemuthianum; test: Colletotrichum lindemuthianum in vitro cell test; assay type: cell-based; settings: 144 h, 20 ppm of active ingredient, 6 days incubation, read-out: efficacy (inhibition of fungal growth)
Protocol: as §1, §2
A spore suspension of C. lindemuthianum was prepared and diluted to the desired spore density.
as §3, with “inhibit spores” for “inhibit spore”, “After 6” for “After 5”

[8] = in an acidic range, with 0.1% formic acid in water and acetonitrile as eluent (linear gradient from 10% to 95% acetonitrile)

chromatographic logP [5, 8]	chromatographic logP ([5]; acidic range, 0.1% formic acid in water and acetonitrile as eluent (linear gradient 10% to 95% acetonitrile))	SMILES	fold induction at 75 ppm [1]	fold induction at 300 ppm [1]	inhibition at 20 ppm (Alternaria alternata)	inhibition at 20 ppm [2]	inhibition at 20 ppm [3]	pest or weed control at 500 ppm [4]	pest or weed control at 31 ppm (Peronospora parasitica)	pest or weed control at 125 ppm (Peronospora parasitica)	pest or weed control at 500 ppm (Peronospora parasitica)	pest or weed control at 125 ppm (Uromyces appendiculatus; 125 ppm of active ingredient)	pest or weed control at 500 ppm (Uromyces appendiculatus)	pest or weed control at 31 ppm ([6]; 31 ppm of active ingredient)	pest or weed control at 125 ppm [6]	inhibition at 20 ppm [7]
2.75		CCOC(=O)C(CO)NC(=O)c1sc(Cl)c(Cl)c1Cl (stereo not shown) [I.078]	> 2	> 2	≤ 30%	≤ 30%	≤ 30%	90 to 100%	90 to 100%	90 to 100%	90 to 100%	90 to 100%	90 to 100%			
	4.54	COC(=O)[C@H](CC(=O)OC(C)(C)C)NC(=O)c1sc(Cl)c(Cl)c1Cl [I.136]	> 2	> 2	≤ 30%	≤ 30%	≤ 30%		90 to 100%	90 to 100%				80 to 89%	70 to 79%	
4.89		CCOC(=O)C(NC(=O)c1sc(Cl)c(Cl)c1Cl)c1ccccc1 (stereo not shown) [I.064]		> 2	≤ 30%	≤ 30%	≤ 30%	80 to 89%	80 to 89%	90 to 100%	90 to 100%		90 to 100%		70 to 79%	≤ 30%
